Measured values as given in US20080021098A1, “Antifungal Compositions” (GIVAUDAN SA, priority 2004, published 2008).

Test system: Cladosporium sphaerospermum IK-65 on cotton fabrics / Cladosporium sphaerospermum MTL on plaster
Test: Minimal headspace level required for antifungal activity (olfactometer, constant fragrance vapour)
Assay type: cell-based
Settings: test phase of 7 days; for Effect on fungal growth: at the headspace level of the same line; for Headspace level required to inhibit fungal growth: constant vapour concentration
Protocol: In order to determine the effective level of the anti-mould fragrance compounds needed for anti-mould vapour phase activity, an olfactometer is constructed that allows delivery to the fungal growth substrate of a constant concentration of fragrance vapour. A stream of nitrogen is saturated with the fragrance component, and the fragrance-saturated gas is then diluted with water saturated air at different ratios. This mixture is then blown continuously through enclosed acryl-glass boxes and the headspace is measured by sampling 1 ml gas sample with subsequent analysis in the gas chromatograph. Once a steady state in the acryl-glass box is reached (usually within 1-3 days), a fungal inoculum on a relevant substrate is added to the box, and fungal growth during a test phase of 7 days is evaluated.
The following relevant substrate—inoculum combinations were used: • (a) White pieces of cotton fabrics were soaked with a solution of potato dextrose broth diluted to a final concentration of 5% containing spores from the fungal test strain Cladosporium sphaerospermum IK-65 diluted to a final density corresponding to an optical density at 600 nm of 0.01. The test strain IK 65 was isolated from moist fabrics having fungal off odors, and it is a typical strain growing on fabrics as substrate. • (b) White plaster used for fixing ceramic tiles in bathrooms was spread homogenously on the back of 35 mm Petri dishes. On each Petri dish, 160 μl of a fungal inoculum was evenly spread. It contained potato dextrose broth diluted to a final concentration of 50% and spores from the fungal test strain Cladosporium sphaerospermum MTL diluted to a final density corresponding to an optical density at 600 nm of 0.004. The test strain MTL was isolated from a bathroom with vigorous mould growth on the plaster between tiles.

SMILES	Effect on fungal growth	Headspace level required to inhibit fungal growth
CC1=CC(C)C(C=O)CC1 (stereo not shown) [1-carboxaldehyde-2,4-dimethyl-cyclohex-3-en]	over 90% inhibition	21 µg/L
CC1(C)CCCC2=C1CC(C=O)CC2 (stereo not shown) [8,8-Dimethyl-1,2,3,4,5,6,7,8-octahydro-naphthalene-2-carbaldehyde]	complete inhibition	4.9 µg/L
COc1ccc(C=O)cc1 [4-methoxy-benzaldehyde]	over 90% inhibition	7.5 µg/L
CC1=CCC(C(C)CCO)CC1 (stereo not shown) [3-(4-methyl-3-cyclohexenyl)-butanol]	80% inhibition	4.5 µg/L
COc1ccc(CC(C)C=O)cc1 (stereo not shown) [3-(4-methoxyphenyl)-2-methyl-propanal]	complete inhibition	1.9 µg/L
